Experimental findings from PubChem BioAssay (NCI) are described below.

SMILES strings stand for the structures. Values joined by “and” are separate entries in the source; they are usually repeats but may differ in a detail not shown here. Equal entries are not always repeated.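 Dose response: 5 concentrations. Exposure: 48 h. Format: 96-well plates. Endpoint: linear interpolation; highest concentration if not reached. GI50 = concentration required for 50% inhibition of growth. TGI marks complete inhibition of growth.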

Some test systems named below: M14 melanoma; BT-549 breast; K-562 leukemia; SK-MEL-28 melanoma; DU-145 prostate; EKVX NSCLC; MCF7 breast; SR leukemia; SN12C renal; HOP-62 NSCLC.
Common to all, as to assay: growth of human tumour cells (NCI), 48 h

As to `N#CC1=C(N)OC2=C(CCOc3c2ccc2ccccc32)C1c1ccc(Br)cc1` (configuration not stated), the GI50 with M14 melanoma was 26.9 µM; in the test on BT-549 breast, above 100 µM; with K-562 leukemia, 16.5 µM; with SK-MEL-28 melanoma, 61.5 µM; in the test on DU-145 prostate, above 100 µM; in the test with EKVX NSCLC, above 100 µM. For the same compound, the GI50 with MCF7 breast is 20.9 µM; in the test on SR leukemia, 17 µM; in the test on SN12C renal, 21.6 µM; in the test with HOP-62 NSCLC, 56.6 µM. Also, the TGI in the test with M14 melanoma was above 100 µM; in the test on BT-549 breast it was above 100 µM; in the test on K-562 leukemia, 54.3 µM; in the test on SK-MEL-28 melanoma it was above 100 µM; in the test on DU-145 prostate, above 100 µM; in the test on EKVX NSCLC it was above 100 µM. The TGI is 94.2 µM in the test on MCF7 breast, 57.8 µM in the test with SR leukemia, 47 µM with SN12C renal and above 100 µM in the test with HOP-62 NSCLC.
As to `CCC(c1ccccc1)c1cc(C(C)(C)C)cc(C(C)(C)C)c1O` (configuration not stated), the TGI was found to be 33.9 µM in the test on M14 melanoma; 33.4 µM with BT-549 breast; 34 µM in the test with K-562 leukemia; 32.5 µM in the test with SK-MEL-28 melanoma; 33.2 µM in the test on DU-145 prostate; 32.2 µM in the test on EKVX NSCLC. In addition, the TGI is 35.7 µM in the test on MCF7 breast, above 100 µM with SR leukemia, 31.3 µM in the test on SN12C renal and 29.7 µM in the test on HOP-62 NSCLC.
With `COc1ccc2c(c1)nnc1c3cccnc3[nH]c21`, the GI50 with M14 melanoma is 1.07 µM and 3.26 µM; with BT-549 breast, 3.43 µM and 3.26 µM; in the test on K-562 leukemia, 0.221 µM and 1.06 µM; in the test with SK-MEL-28 melanoma it was 11.8 µM and 11.2 µM; in the test with DU-145 prostate it was 1.88 µM and 1.04 µM; in the test with EKVX NSCLC, 2.82 µM and 6.62 µM. Besides, the GI50 was 0.228 µM and 0.209 µM in the test on MCF7 breast; 0.0313 µM and 0.0336 µM with SR leukemia; 1.63 µM and 1.68 µM with SN12C renal; 5.47 µM and 26 µM in the test on HOP-62 NSCLC. For the same compound, the TGI with BT-549 breast was 15 µM and 20.5 µM; in the test on SK-MEL-28 melanoma, 50 µM and > 100 µM; in the test on DU-145 prostate, 12.9 µM and 4.46 µM; with EKVX NSCLC, 50 µM and > 100 µM; in the test on MCF7 breast, 0.966 µM and 1.41 µM; in the test with SN12C renal, 7.77 µM and 10.7 µM. In addition, in the test with HOP-62 NSCLC, the TGI is 16.1 µM and > 100 µM.
Turning to `NS(=O)(=O)c1ccc(N=Nc2c[nH]c(=O)c(O)c2)cc1`, the TGI in the test on M14 melanoma, in the test on BT-549 breast, in the test with K-562 leukemia, with SK-MEL-28 melanoma, in the test with DU-145 prostate and with EKVX NSCLC was above 100 µM in each case. The TGI in the test with MCF7 breast, with SR leukemia, in the test with SN12C renal and in the test on HOP-62 NSCLC was above 100 µM each time.
For `Cn1c(I)c(C#C[Si](C)(C)C)c(=O)[nH]c1=O`, the GI50 in the test on BT-549 breast is 3 µM; in the test with K-562 leukemia, 1.68 µM; in the test with SK-MEL-28 melanoma, 1.66 µM; in the test on DU-145 prostate it was 4.11 µM; in the test with EKVX NSCLC it was 10.9 µM; in the test on MCF7 breast, 6.2 µM. For the same compound, the GI50 was 3.37 µM in the test with SR leukemia, 6.66 µM in the test with SN12C renal and 17.6 µM in the test on HOP-62 NSCLC. The TGI amounted to 9.21 µM in the test with BT-549 breast; 4.08 µM with K-562 leukemia; 3.12 µM with SK-MEL-28 melanoma; 15.1 µM in the test on DU-145 prostate; 24.8 µM with EKVX NSCLC; 21.5 µM in the test with MCF7 breast. The TGI in the test on SR leukemia amounted to 5.82 µM; in the test on SN12C renal, 20.5 µM; in the test on HOP-62 NSCLC, 32.4 µM.
For the compound `O=C1NC(=NCCc2ccc(Br)cc2)S/C1=C\c1ccc2ncccc2c1`, the GI50 in the test on M14 melanoma is above 25 µM; with BT-549 breast it was above 21.6 µM; with K-562 leukemia, 24.6 µM; in the test on SK-MEL-28 melanoma it was above 25 µM; in the test with DU-145 prostate, above 25 µM; in the test on MCF7 breast it was 22.1 µM. The results for the GI50 with SR leukemia, in the test on SN12C renal and in the test on HOP-62 NSCLC were 7.31 µM, above 25 µM and above 25 µM, respectively. The TGI in the test with M14 melanoma, in the test on BT-549 breast, with K-562 leukemia, in the test with SK-MEL-28 melanoma, in the test on DU-145 prostate and in the test with MCF7 breast was above 25 µM in each case. Further, the TGI with SR leukemia, with SN12C renal and in the test on HOP-62 NSCLC was above 25 µM throughout.
Take `CC(C)(C)[Si](C)(C)OC1[C@@H](COC(=O)NC(=O)CCl)O[C@@H](n2cnc3c(N)ncnc32)[C@H]1O[Si](C)(C)C(C)(C)C` (some centres not stated): the GI50 is 1.39 µM in the test on M14 melanoma; 0.922 µM in the test on BT-549 breast; 1.36 µM in the test on K-562 leukemia; 7.12 µM in the test on SK-MEL-28 melanoma; 5.75 µM in the test on DU-145 prostate; 2.26 µM in the test with MCF7 breast. Besides, the GI50 in the test with SR leukemia was 0.357 µM; in the test with SN12C renal it was 1.17 µM; in the test on HOP-62 NSCLC, 4.04 µM. Moreover, the TGI amounted to 4.23 µM with M14 melanoma; 1.85 µM in the test on BT-549 breast; 3.36 µM in the test on K-562 leukemia; 13.7 µM with SK-MEL-28 melanoma; 12 µM in the test on DU-145 prostate; 9 µM in the test with MCF7 breast. Also, the TGI in the test on SR leukemia was 1.31 µM; in the test on SN12C renal it was 3.23 µM; in the test on HOP-62 NSCLC, 10.3 µM.
`CCC(=O)Nc1nnc(Cc2ccc(OC)c(OC)c2)s1`: the GI50 in the test on M14 melanoma, in the test on BT-549 breast, in the test on K-562 leukemia, in the test on SK-MEL-28 melanoma, with DU-145 prostate and in the test on MCF7 breast was above 100 µM throughout. In addition, the GI50 in the test with SR leukemia, in the test on SN12C renal and with HOP-62 NSCLC was above 100 µM throughout. The TGI in the test with M14 melanoma, in the test with BT-549 breast, in the test with K-562 leukemia, in the test on SK-MEL-28 melanoma, in the test on DU-145 prostate and with MCF7 breast was above 100 µM in each case. For the same compound, the TGI with SR leukemia, in the test on SN12C renal and with HOP-62 NSCLC was above 100 µM in each case.
`COc1cc(-c2ccc[nH]2)[nH]c1/C=C1\N=C(C)C(CC(=O)OCC(C)(C)C)=C1C`: the GI50 in the test on M14 melanoma was 0.212 µM; with BT-549 breast, 0.286 µM; in the test with K-562 leukemia it was 0.34 µM; in the test on SK-MEL-28 melanoma, 0.305 µM; in the test with DU-145 prostate, 0.226 µM; with EKVX NSCLC it was 0.0903 µM. Moreover, the GI50 is 0.175 µM in the test with MCF7 breast, 0.122 µM in the test on SR leukemia and 0.218 µM in the test with HOP-62 NSCLC. In addition, the TGI in the test on M14 melanoma was found to be 0.658 µM; in the test with BT-549 breast it was 1.87 µM; in the test with K-562 leukemia, 1.37 µM; in the test with SK-MEL-28 melanoma, 1.34 µM; with DU-145 prostate, 1.53 µM; in the test with EKVX NSCLC, 1.7 µM. The TGI came to 1.25 µM in the test with MCF7 breast, 0.617 µM with SR leukemia and 1.38 µM in the test on HOP-62 NSCLC.
